Patent US20260184693A1, “INHIBITORS OF SOLUTE CARRIER FAMILY 6A MEMBER 19 (SLC6A19) AND METHODS OF USE THEREOF” (Maze Therapeutics, Inc., priority 2022, published 2026)

Biological target: T1, human SLC6A19 (Homo sapiens, UniProt Q695T7)
T1 construct: expressed in transfected cells
T1 sequence (Q695T7 1-634): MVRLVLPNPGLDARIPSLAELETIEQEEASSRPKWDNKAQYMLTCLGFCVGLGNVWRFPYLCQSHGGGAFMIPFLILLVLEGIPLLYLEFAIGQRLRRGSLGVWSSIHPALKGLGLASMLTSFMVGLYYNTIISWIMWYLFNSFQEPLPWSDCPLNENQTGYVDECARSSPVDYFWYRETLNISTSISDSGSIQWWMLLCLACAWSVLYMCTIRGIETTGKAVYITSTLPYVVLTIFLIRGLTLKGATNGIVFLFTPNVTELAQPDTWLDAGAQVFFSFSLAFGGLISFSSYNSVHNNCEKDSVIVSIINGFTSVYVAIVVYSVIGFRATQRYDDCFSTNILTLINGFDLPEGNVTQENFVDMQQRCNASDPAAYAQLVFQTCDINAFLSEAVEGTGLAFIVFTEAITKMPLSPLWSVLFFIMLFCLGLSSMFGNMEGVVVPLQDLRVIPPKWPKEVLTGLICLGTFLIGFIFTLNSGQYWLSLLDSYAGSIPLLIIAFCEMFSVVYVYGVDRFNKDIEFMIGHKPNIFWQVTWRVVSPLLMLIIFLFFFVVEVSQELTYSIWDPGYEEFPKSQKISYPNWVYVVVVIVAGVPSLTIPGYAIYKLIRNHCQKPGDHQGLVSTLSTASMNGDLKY
T1 sequence (Q9HBJ8 15-222 partner): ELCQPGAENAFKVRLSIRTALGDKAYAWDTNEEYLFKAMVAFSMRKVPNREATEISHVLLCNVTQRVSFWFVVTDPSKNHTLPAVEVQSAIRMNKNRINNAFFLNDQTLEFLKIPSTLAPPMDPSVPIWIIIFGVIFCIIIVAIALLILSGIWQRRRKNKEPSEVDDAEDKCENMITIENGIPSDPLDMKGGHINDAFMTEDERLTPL
Assay: Example B2: 13C6,15N-isoleucine uptake, RapidFire mass spectrometry, in CHO cells with doxycycline-inducible expression of human SLC6A19 and TMEM27
Format: cell-based
Conditions: read-out: SLC6A19_RapidFire Uptake Assay IC50
In short: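 CHO cells were induced with doxycycline to express human SLC6A19 with TMEM27, then pre-incubated 20 min at 37 °C with compounds (2-fold, 10-point, duplicate). Uptake of 13C6,15N-isoleucine (2 mM solution added) over a further 20 min was measured by RapidFire mass spectrometry, using 13C-leucine as internal standard.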

SMILES | IC50 [nM]
CC(=O)N1CCC[C@@H](N(C)C(=O)NCc2cc3[nH]ccc3cc2F)C1 [Compound 184, (R)-1-(1-acetylpiperidin-3-yl)-3-((5-fluoro-1H-indol-6-yl)methyl)-1-methylurea] | 3970
COC(C)(C)C(=O)N1CCC[C@@H](N(C)C(=O)NCc2cc3cc(Cl)ccc3[nH]2)C1 [Compound 79, (R)-3-((5-chloro-1H-indol-2-yl)methyl)-1-(1-(2-methoxy-2-methylpropanoyl)piperidin-3-yl)-1-methylurea] | 5630
CN(C(=O)NCc1cc2cc(Cl)ccc2[nH]1)[C@@H]1CCCN(C(=O)CCC(N)=O)C1 [Compound 46, (R)-4-(3-(3-((5-chloro-1H-indol-2-yl)methyl)-1-methylureido)piperidin-1-yl)-4-oxobutanamide] | 1240
CN(C(=O)NCc1cc2cc(Cl)ccc2[nH]1)[C@@H]1CCCN(C(=O)c2ncc[nH]2)C1 [Compound 18, (R)-1-(1-(1H-imidazole-2-carbonyl)piperidin-3-yl)-3-((5-chloro-1H-indol-2-yl)methyl)-1-methylurea] | 2250
CC(C(=O)N1CCC[C@@H](N(C)C(=O)NCc2cc3cc(Cl)ccc3[nH]2)C1)n1cncn1 (stereo partly drawn) [Compound 70, 1-((3R)-1-(2-(1H-1,2,4-triazol-1-yl)propanoyl)piperidin-3-yl)-3-((5-chloro-1H-indol-2-yl)methyl)-1-methylurea] | 3060
CCNC(=O)NC(C)C(=O)N1CCC[C@@H](N(C)C(=O)NCc2cc3cc(Cl)ccc3[nH]2)C1 (stereo partly drawn) [Compound 109, 3-((5-chloro-1H-indol-2-yl)methyl)-1-((3R)-1-((ethylcarbamoyl)alanyl)piperidin-3-yl)-1-methylurea] | 1810
CN(C(=O)NCc1cc2cc(Cl)ccc2[nH]1)[C@@H]1CCCN(C(=O)c2cocn2)C1 [Compound 7, (R)-3-((5-chloro-1H-indol-2-yl)methyl)-1-methyl-1-(1-(oxazole-4-carbonyl)piperidin-3-yl)urea] | 685
CN(C(=O)NCc1cc2cc(Cl)ccc2[nH]1)[C@@H]1CCCN(C(=O)C2CC(F)C2)C1 (stereo partly drawn) [Compound 124, (R)-3-((5-chloro-1H-indol-2-yl)methyl)-1-(1-(3-fluorocyclobutane-1-carbonyl)piperidin-3-yl)-1-methylurea] | 256
CC(=O)N1CCC[C@@H](N(C)C(=O)NCc2cc3cc(Cl)c(F)cc3[nH]2)C1 [Compound 159, (R)-1-(1-acetylpiperidin-3-yl)-3-((5-chloro-6-fluoro-1H-indol-2-yl)methyl)-1-methylurea] | 179
Cc1cc(C(=O)N2CCC[C@@H](N(C)C(=O)NCc3cc4cc(Cl)ccc4[nH]3)C2)[nH]n1 [Compound 41, (R)-3-((5-chloro-1H-indol-2-yl)methyl)-1-methyl-1-(1-(3-methyl-1H-pyrazole-5-carbonyl)piperidin-3-yl)urea] | 854
COc1ccc2cc(CNC(=O)N(C)[C@@H]3CCCN(C(C)=O)C3)[nH]c2c1 [Compound 162, (R)-1-(1-acetylpiperidin-3-yl)-3-((6-methoxy-1H-indol-2-yl)methyl)-1-methylurea] | 6780
CN(C(=O)NCc1cc2ccccc2[nH]1)[C@@H]1CCCN(c2ccon2)C1 [Compound 150, (R)-3-((1H-indol-2-yl)methyl)-1-(1-(isoxazol-3-yl)piperidin-3-yl)-1-methylurea] | 91.9
CN1CCC[C@@H](N(C)C(=O)NCc2cc3cc(Cl)ccc3[nH]2)C1 [Compound 149, (R)-3-((5-chloro-1H-indol-2-yl)methyl)-1-methyl-1-(1-methylpiperidin-3-yl)urea] | 10100
CCS(=O)(=O)CC(=O)N1CCC[C@@H](N(C)C(=O)NCc2cc3cc(Cl)ccc3[nH]2)C1 [Compound 71, (R)-3-((5-chloro-1H-indol-2-yl)methyl)-1-(1-(2-(ethylsulfonyl)acetyl)piperidin-3-yl)-1-methylurea] | 6390
CC(=O)NC(C)C(=O)N1CCC[C@@H](N(C)C(=O)NCc2cc3cc(Cl)ccc3[nH]2)C1 (stereo partly drawn) [Compound 88, N-(1-((R)-3-(3-((5-chloro-1H-indol-2-yl)methyl)-1-methylureido)piperidin-1-yl)-1-oxopropan-2-yl)acetamide] | 4080
Cc1noc(CC(=O)N2CCC[C@@H](N(C)C(=O)NCc3cc4cc(Cl)ccc4[nH]3)C2)n1 [Compound 65, (R)-3-((5-chloro-1H-indol-2-yl)methyl)-1-methyl-1-(1-(2-(3-methyl-1,2,4-oxadiazol-5-yl)acetyl)piperidin-3-yl)urea] | 973

SMILES | IC50 [nM]
CN(C(=O)NCc1cc2ccccc2[nH]1)C1CCCN(c2cccnn2)C1 (stereo not shown) [Compound 145, 3-((1H-indol-2-yl)methyl)-1-methyl-1-(1-(pyridazin-3-yl)piperidin-3-yl)urea] | 909
CN(C(=O)NCc1cc2cc(Cl)ccc2[nH]1)[C@@H]1CCCN(C(=O)C2CCC(=O)C2)C1 (stereo partly drawn) [Compound 75, 3-((5-chloro-1H-indol-2-yl)methyl)-1-methyl-1-((3R)-1-(3-oxocyclopentane-1-carbonyl)piperidin-3-yl)urea] | 1750
CC(=O)N1CCC[C@@H](N(C)C(=O)NCc2cc3cc(Cl)c(Cl)cc3[nH]2)C1 [Compound 154, (R)-1-(1-acetylpiperidin-3-yl)-3-((5,6-dichloro-1H-indol-2-yl)methyl)-1-methylurea] | 173
CN(C(=O)NCc1cc2cc(Cl)ccc2[nH]1)[C@@H]1CCCN(C(=O)C23CC(C2)C3)C1 [Compound 123, (R)-1-(1-(bicyclo[1.1.1]pentane-1-carbonyl)piperidin-3-yl)-3-((5-chloro-1H-indol-2-yl)methyl)-1-methylurea] | 427
CN(C(=O)NCc1cc2cc(Cl)ccc2[nH]1)[C@@H]1CCCN(C(=O)CCn2cccn2)C1 [Compound 91, (R)-1-(1-(3-(1H-pyrazol-1-yl)propanoyl)piperidin-3-yl)-3-((5-chloro-1H-indol-2-yl)methyl)-1-methylurea] | 1810
COc1ccc(C(=O)N2CCC[C@@H](N(C)C(=O)NCc3cc4cc(Cl)ccc4[nH]3)C2)nc1 [Compound 78, (R)-3-((5-chloro-1H-indol-2-yl)methyl)-1-(1-(5-methoxypicolinoyl)piperidin-3-yl)-1-methylurea] | 1760
CN(C(=O)NCc1cc2cc(Cl)ccc2[nH]1)[C@@H]1CCCN(C(=O)c2ccnnc2)C1 [Compound 23, (R)-3-((5-chloro-1H-indol-2-yl)methyl)-1-methyl-1-(1-(pyridazine-4-carbonyl)piperidin-3-yl)urea] | 5840
CN(C(=O)NCc1cc2ccccc2[nH]1)[C@@H]1CCCN(c2cccnn2)C1 [Compound 146, (R)-3-((1H-indol-2-yl)methyl)-1-methyl-1-(1-(pyridazin-3-yl)piperidin-3-yl)urea] | 553
COCc1oncc1C(=O)N1CCC[C@@H](N(C)C(=O)NCc2cc3cc(Cl)ccc3[nH]2)C1 [Compound 90, (R)-3-((5-chloro-1H-indol-2-yl)methyl)-1-(1-(5-(methoxymethyl)isoxazole-4-carbonyl)piperidin-3-yl)-1-methylurea] | 13500
CN(C(=O)NCc1cc2cc(Cl)ccc2[nH]1)[C@@H]1CCCN(C(=O)COc2ccc(=O)[nH]n2)C1 [Compound 83, (R)-3-((5-chloro-1H-indol-2-yl)methyl)-1-methyl-1-(1-(2-((6-oxo-1,6-dihydropyridazin-3-yl)oxy)acetyl)piperidin-3-yl)urea] | 4790
COC(=O)N1CCC[C@@H](N(C)C(=O)NCc2cc3cc(Cl)ccc3[nH]2)C1 [Compound 158, methyl (R)-3-(3-((5-chloro-1H-indol-2-yl)methyl)-1-methylureido)piperidine-1-carboxylate] | 113
CN(C(=O)NCc1cc2cc(Cl)ccc2[nH]1)[C@@H]1CCCN(C(=O)c2ccn3ccnc3c2)C1 [Compound 76, (R)-3-((5-chloro-1H-indol-2-yl)methyl)-1-(1-(imidazo[1,2-a]pyridine-7-carbonyl)piperidin-3-yl)-1-methylurea] | 1000
Cc1cc(COc2cc3[nH]c(CNC(=O)N(C)[C@@H]4CCCN(c5cccnn5)C4)cc3cc2Cl)no1 [Compound 144, (R)-3-((5-chloro-6-((5-methylisoxazol-3-yl)methoxy)-1H-indol-2-yl)methyl)-1-methyl-1-(1-(pyridazin-3-yl)piperidin-3-yl)urea] | 284
CC(=O)N1CCC[C@@H](N(C)C(=O)NCc2cc3cc(C)c(C#N)cc3[nH]2)C1 [Compound 174, (R)-1-(1-acetylpiperidin-3-yl)-3-((6-cyano-5-methyl-1H-indol-2-yl)methyl)-1-methylurea] | 2790
Cc1cc(C(=O)N2CCC[C@@H](N(C)C(=O)NCc3cc4cc(Cl)ccc4[nH]3)C2)n(C)n1 [Compound 77, (R)-3-((5-chloro-1H-indol-2-yl)methyl)-1-(1-(1,3-dimethyl-1H-pyrazole-5-carbonyl)piperidin-3-yl)-1-methylurea] | 6570
